System: A375 multi-cell spheroids with HUVEC/MSC, viability
Assay: Anticancer human tumor A375 cell line growth inhibition [GQUAD];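 also: spheroids exposed to compounds for seven days before readout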
Details: for IC50: curve of first compound; for viability, T/C: stronger effect = lower value
From the text: DNA G-quadruplex Stabilizer Agents in Combinations in Complex Spheroids
A high-throughput screen of multi-cell type tumor spheroids was designed to identify active combinations of DNA G-quadruplex stabilizer agents and targeted small molecules. Complex spheroids include a stromal component modeled by human endothelial cells (HUVEC) and fibroblasts modeled by human mesenchymal stem cells (MSCs). The concentration ranges selected for each drug and investigational agent were based upon clinically achievable concentrations if the clinical Cmax of the agent was known.
Compounds. The drugs and investigational agents: pidnarulex (CX-5461; NSC782164), APTO-253 (NSC789042), BRACO-19 (NSC847499), peposertib (NSC802822), ceralasertib (NSC780249), elimusertib (NSC800525), camonsertib (NSC841442), AZD-1390 (NSC803789), olaparib (NSC753686), talazoparib (NSC767125), ART-558 (NSC835418), sotorasib (NSC818433), MRTX-1133 (NSC836407), SN-38 (NSC673596), topotecan (NSC609699), etoposide (NSC141540), doxorubicin (NSC123127), gemcitabine (NSC613327), 5-fluorouracil (NSC19893), paclitaxel (NSC125973), vemurafenib (NSC761431), panobinostat (NSC761190), R-306465 (JNJ-16241199; NSC773264), adavosertib (NSC754352), TP-3654 (NSC805149), carboplatin (NSC241240), KSQ-4279 (NSC840948), and staurosporine (NSC755774) were obtained from the National Cancer Institute (NCI) Developmental Therapeutics Program Chemical Repository (34). The FDA-approved anticancer drug set is available from the NCI Developmental Therapeutics Program. […] The stock solutions were prepared in dimethyl sulfoxide (DMSO, Sigma-Aldrich, St. Louis, MO, cat. D2650) at 800-fold the tested concentration and stored at -70 degrees C prior to their use. All drugs and investigational agents were tested over a range starting from a high concentration at or near the clinical Cmax and decreasing in half-log increments. If the clinical Cmax for an agent had not been determined, the highest concentration tested was 10 microM.
2.3 Cell Culture. All cells were maintained in an incubator at 37 degrees C and 5% CO2 with 95% humidity. The PDC lines were cultured according to standard operating procedures established by the NCI PDMR. All PDCs were thawed and cultured in Matrigel-coated flasks prepared with a working solution of 1X Ham's F-12 nutrient mix, without supplementation (Invitrogen, cat. 11765054), 100 U/mL penicillin-streptomycin (Invitrogen, cat. 15140122), and 2.5% Matrigel (Corning Inc., cat. 354248) for the first three passages. The 857933-349-R-J2-PDC line was cultured in 6C/Colon 1B media, which includes advanced DMEM/F-12 (Thermo Fisher Scientific, cat. 12634028), 10 mM HEPES (Thermo Fisher Scientific, cat. 15630080), 1X GlutaMAX supplement (Thermo Fisher Scientific, cat. 35050061), 0.1 mg/mL primocin (InvivoGen, cat. ant-pm-2), 10% defined fetal bovine serum, heat inactivated (HyClone Laboratories Inc., cat. SH30070.03HI), 50% L-WRN conditioned media (ATCC, cat. CRL-3276), 1.25 mM N-Acetyl-L-cysteine (Sigma-Aldrich, cat. A9165), 10 mM nicotinamide (Sigma-Aldrich, cat. N0636), 1X B-27 supplement (Thermo Fisher Scientific, cat. 17504044), 1X N-2 supplement (Thermo Fisher Scientific, cat. 17502048), 10 microM Y-27632 dihydrochloride (Tocris Bioscience, cat. 1254), and 50 ng/mL human EGF recombinant protein (Thermo Fisher Scientific, cat. PHG0311). The 485176-168-R4-J1-PDC line was cultured in Panc media, which includes all 6C/Colon 1B media components plus 100 ng/mL human FGF-10 (Thermo Fisher Scientific, cat. 100-26), 500 nM SB-431542 (Selleckchem, cat. S1067), and gastrin (Tocris, cat. 3006).
[…]

O=C(NO)c1cnc(N2CCN(S(=O)(=O)c3ccc4ccccc4c3)CC2)nc1 + Cc1cnc(CNC(=O)c2c(=O)c3ccc(N4CCCN(C)CC4)nc3n3c2sc2ccccc23)cn1
IC50 (second compound 0.0316 µM): 210 nM
IC50 (second compound 0.1 µM): 124 nM
IC50 (second compound 0.316 µM): 109 nM
IC50 (second compound 1 µM): < 31.6 nM
IC50 (second compound 3.16 µM): < 31.6 nM
IC50 (second compound 10 µM): < 31.6 nM
viability, T/C (second compound 0.0316 µM, first compound 0.0316 µM): 115%
viability, T/C (second compound 0.0316 µM, first compound 0.1 µM): 124%
viability, T/C (second compound 0.0316 µM, first compound 0.316 µM): 11.9%
viability, T/C (second compound 0.0316 µM, first compound 1 µM): 0.22%
viability, T/C (second compound 0.0316 µM, first compound 3.16 µM): 0.16%
viability, T/C (second compound 0.0316 µM, first compound 10 µM): 0.19%
viability, T/C (second compound 0.1 µM, first compound 0.0316 µM): 75.2%
viability, T/C (second compound 0.1 µM, first compound 0.1 µM): 59.1%
viability, T/C (second compound 0.1 µM, first compound 0.316 µM): 10.8%
viability, T/C (second compound 0.1 µM, first compound 1 µM): 0.18%
viability, T/C (second compound 0.1 µM, first compound 3.16 µM): 0.13%
viability, T/C (second compound 0.1 µM, first compound 10 µM): 0.17%
viability, T/C (second compound 0.316 µM, first compound 0.0316 µM): 64.1%
viability, T/C (second compound 0.316 µM, first compound 0.1 µM): 53.2%
viability, T/C (second compound 0.316 µM, first compound 0.316 µM): 9.31%
viability, T/C (second compound 0.316 µM, first compound 1 µM): 0.13%
viability, T/C (second compound 0.316 µM, first compound 3.16 µM): 0.11%
viability, T/C (second compound 0.316 µM, first compound 10 µM): 0.14%
viability, T/C (second compound 1 µM, first compound 0.0316 µM): 44.6%
viability, T/C (second compound 1 µM, first compound 0.1 µM): 36.8%
viability, T/C (second compound 1 µM, first compound 0.316 µM): 0.9%
viability, T/C (second compound 1 µM, first compound 1 µM): 0.11%
viability, T/C (second compound 1 µM, first compound 3.16 µM): 0.09%
viability, T/C (second compound 1 µM, first compound 10 µM): 0.12%
viability, T/C (second compound 3.16 µM, first compound 0.0316 µM): 32.8%
viability, T/C (second compound 3.16 µM, first compound 0.1 µM): 23.3%
viability, T/C (second compound 3.16 µM, first compound 0.316 µM): 0.17%
viability, T/C (second compound 3.16 µM, first compound 1 µM): 0.11%
viability, T/C (second compound 3.16 µM, first compound 3.16 µM): 0.11%
viability, T/C (second compound 3.16 µM, first compound 10 µM): 0.15%
viability, T/C (second compound 10 µM, first compound 0.0316 µM): 28.5%
viability, T/C (second compound 10 µM, first compound 0.1 µM): 22.6%
viability, T/C (second compound 10 µM, first compound 0.316 µM): 0.2%
viability, T/C (second compound 10 µM, first compound 1 µM): 0.12%
viability, T/C (second compound 10 µM, first compound 3.16 µM): 0.18%
viability, T/C (second compound 10 µM, first compound 10 µM): 0.21%

From PubChem BioAssay AID2060485 (Molecular Pharmacology Branch, DTP, NCI, 2025)
